Data taken from US5200407A, “Azole derivatives and anti-ulcerative composition containing same” (Meiji Seika Kaburhiki Kaisha, priority 1989, dated 1993).

Key:
ulceration [1] = experiment: Ethanol-induced ulceration; format: in vivo, Donryu masculine rats; details: 30 mg/kg oral, in 0.5% CMC, one hour prior to 100% ethanol, rats; for % Ulceration Inhibition: Table 2
Experimental: 2. Ethanol-induced ulceration
Five (5) ml/kg of 100% ethanol was orally administrated to Donryu masculine rats fasted for 48 hours and dehydrated for 24 hours. One hour later, the rats were put down in similar manners as mentioned above test to remove and treat the stomach. The compounds under test, suspended in 0.5% CMC, were orally administered to the rats at a dose of 5 ml/kg body weight (corresponding to 30 mg/kg body weight of that compound) one hour prior to the administration of ethanol.

ulceration [2] = experiment: Water-immersion, restraint stress ulcerogenic testing; format: in vivo, Wister male rats; details: one hour prior to stressing, water immersion restraint six hours, rats; for inhibition in vivo at 30 mg/kg: Rattus norvegicus, Table 1, suspended in 0.5% CMC
Experimental: 1. Water-immersion, restraint stress ulcerogenic testing
Wister male rats (11-week age) fasted for 18 hours were placed in a restraint cage, which was in turn immersed to a depth of the pectoral region in water at 20° to 22° C. to leave the rats under stress for six hours. Then, the rats were drawn up from the water and put down by vertebral dislocation. Afterwards, the stomach was removed, infused with 50 ml of a 5% aqueous solution of formalin and was wholly immersed in the same solution for 30 minutes for fixation. The fixed sample was dissected along the curvatura ventriculi major, and the ulcerated regions were measured along their major length (in mm) by means of slide calipers. The total sum of the measurements per rat is a value of ulceration. The compounds under test, suspended in 0.5% carboxymethylcellulose (CMC), were administered to the rats at a single dose of 5 ml/kg body weight (corresponding to 30 mg/kg body weight of the compound) one hour prior to the stressing. To a control group, only 0.5% CMC was administrated at a dose of 5 ml/kg weight. The rate of depression of ulceration was calculated according to the following equation: [formula]

Toxicity (LD50) = details: mouse, in vivo; mice, oral
Text: The compounds of the present invention are of low toxicity, as appreciated from Example Compound Nos. 79, 104 and 133 having up to 1 g/kg of LD50 value (mice, by an oral).

With [O-][S+](CCN1CCOCC1)c1nc2cccnc2s1 (stereo not shown) [Example 138] the “% Ulceration Inhibition” value (ulceration [1]) was 97% and the inhibition in vivo at 30 mg/kg (ulceration [2]) was 68%.

Cn1nnnc1C[S+]([O-])c1nc2cccnc2s1 (stereo not shown) [Example 120, 2-[((1-methyltetrazol-5-yl)methyl)sulfinyl]thiazolo[5,4-b]pyridine] gave an inhibition in vivo at 30 mg/kg (ulceration [2]) of 86%.

Molecule CC1(C)CCCC(C)(C)N1CC[S+]([O-])c1nc2ncc(C(F)(F)F)cc2s1 (stereo not shown) [Example 133] has an inhibition in vivo at 30 mg/kg (ulceration [2]) of 98% and an LD50 (Toxicity (LD50)) of at least 1000 mg/kg.

For [O-][S+](CCN1CCOCC1)c1nc2cnccc2s1 (stereo not shown) [Example 140], the inhibition in vivo at 30 mg/kg (ulceration [2]) was 58%.

With CN1CCCC1CCS(=O)(=O)c1nc2cccnc2s1 (stereo not shown) [Example 145, 2-[(2-(1-methylpyrrolidin-2-yl)ethyl)sulfonyl]thiazolo[5,4-b]pyridine] the inhibition in vivo at 30 mg/kg (ulceration [2]) was 68%.

For CC(=O)OCC[S+]([O-])c1nc2cccnc2s1 (stereo not shown) [Example 110, 2-[(2-acetoxyethyl)sulfinyl]thiazolo[5,4-b]pyridine], the inhibition in vivo at 30 mg/kg (ulceration [2]) was 79%.

CC(C)N(CC[S+]([O-])c1nc2cnccc2s1)C(C)C (stereo not shown) [Example 130] showed an inhibition in vivo at 30 mg/kg (ulceration [2]) of 76%.

In the case of CN1CCC([S+]([O-])c2nc3cccnc3s2)CC1 (stereo not shown) [Example 148, 2-[(1-methylpiperidin-4-yl)sulfinyl]thiazolo[5,4-b]pyridine], the inhibition in vivo at 30 mg/kg (ulceration [2]) is reported as 78%.

Work on CC1(C)CCCC(C)(C)N1CC[S+]([O-])c1nc2cccnc2s1 (stereo not shown) [Example 129, 2-[{2-(2,2,6,6-tetramethylpiperidin-1-yl)ethyl)sulfinyl]thiazolo[5,4-b]pyridine] yielded an inhibition in vivo at 30 mg/kg (ulceration [2]) of 99%.

Work on CC(C)N(CCSc1nc2ncccc2o1)C(C)C [Example 51, 2-[(2-di-isopropylaminoethyl)thio]oxazolo[4,5-b]pyridine] yielded an inhibition in vivo at 30 mg/kg (ulceration [2]) of 88%.

CCOCC[S+]([O-])c1nc2cc(Cl)cnc2s1 (stereo not shown) [Example 122] showed an inhibition in vivo at 30 mg/kg (ulceration [2]) of 13%.

For O=S(=O)(CCN1CCOCC1)c1nc2cccnc2s1 [Example 139], the inhibition in vivo at 30 mg/kg (ulceration [2]) was 47%.

For CC(C)N(CC[S+]([O-])c1nc2cccnc2s1)C(C)C (stereo not shown) [Example 149, 2-[(2-di-isopropylaminoethvl)sulfinyl]thiazolo[5,4-b]pyridine], the “% Ulceration Inhibition” value (ulceration [1]) was 94% and the inhibition in vivo at 30 mg/kg (ulceration [2]) was 99%.

In the case of COC(=O)C[S+]([O-])c1nc2cccnc2s1 (stereo not shown) [Example 93, 2-[(methoxycarbonylmethyl)sulfinyl]thiazolo[5,4-b]pyridine], the inhibition in vivo at 30 mg/kg (ulceration [2]) is reported as 73%.

For CN1CCCC1CCSc1nc2cccnc2s1 (stereo not shown) [Example 70, 2-[(2-(1-methylpyrrolidin-2-yl)ethyl)thio]thiazolo[5,4-b]pyridine], the inhibition in vivo at 30 mg/kg (ulceration [2]) was 42%.

Molecule C/C=C/COC(=O)C[S+]([O-])c1nc2cccnc2s1 (stereo not shown) [Example 84, 2-[(crotyloxycarbonylmethyl)sulfinyl]thiazolo[5,4-b]pyridine] has an inhibition in vivo at 30 mg/kg (ulceration [2]) of 75%.

Molecule CCOCC[S+]([O-])c1nc2cccnc2[nH]1 (stereo not shown) [Example 124] has an inhibition in vivo at 30 mg/kg (ulceration [2]) of 25%.

With Cn1nnnc1CCCC[S+]([O-])c1nc2cccnc2s1 (stereo not shown) [Example 100, 2-[(4-(1-methyltetrazol-5-y1)butyl)sulfinyl]thiazolo[5,4-b]pyridine] the inhibition in vivo at 30 mg/kg (ulceration [2]) was 95%.

With CCOC(=O)C[S+]([O-])c1nc2cccnc2s1 (stereo not shown) [Example 128, 2-[(ethoxycarbonylmethyl)sulfinyl]thiazolo[5,4-b]pyridine] the “% Ulceration Inhibition” value (ulceration [1]) was 99% and the inhibition in vivo at 30 mg/kg (ulceration [2]) was 91%.

With c1cnc2sc(SCCN3CCOCC3)nc2c1 [Example 65, 2-[(2-morpholinoethyl)thio]thiazolo[5,4-b]pyridine] the inhibition in vivo at 30 mg/kg (ulceration [2]) was 58%.

For [O-][S+](CCN1CCOCC1)c1nc2cc(Cl)cnc2s1 (stereo not shown) [Example 142], the inhibition in vivo at 30 mg/kg (ulceration [2]) was 13%.

Work on CC(C)N(CC[S+]([O-])c1nc2ncc(C(F)(F)F)cc2s1)C(C)C (stereo not shown) [Example 131] yielded an inhibition in vivo at 30 mg/kg (ulceration [2]) of 71%.

With CC1(C)CCCC(C)(C)N1CCSc1nc2cccnc2o1 [Example 48, 2-[(2-(2,2,6,6-tetramethylpiperidin-1-yl)ethyl)thio]oxazolo[5,4-b]pyridine] the inhibition in vivo at 30 mg/kg (ulceration [2]) was 99%.

For CC(C)N(CCS(=O)(=O)c1nc2cccnc2s1)C(C)C [Example 150, 2-[(2-di-isooropylaminoethyl)sulfonyl]thiazolo[5,4-b]pyridine], the inhibition in vivo at 30 mg/kg (ulceration [2]) was 61%.

O=C1NCC(C[S+]([O-])c2nc3cccnc3s2)O1 (stereo not shown) [Example 126, 2-[(2-oxazolidion-5-yl)methylsulfinyl]thiazolo[5,4-b]pyridine] showed an inhibition in vivo at 30 mg/kg (ulceration [2]) of 60%.

In the case of CC(C)=CC[S+]([O-])c1nc2cccnc2s1 (stereo not shown) [Example 127, 2-[(3-methyl-2-butenyl)sulfinyl]thiazolo[5,4-b]pyridine], the inhibition in vivo at 30 mg/kg (ulceration [2]) is reported as 0%.

With [O-][S+](CCc1ccccn1)c1nc2cccnc2s1 (stereo not shown) [Example 125, 2-[2(pyridin-2-yl)-ethylsulfinyl]thiazolo[4,5-]pyridine] the inhibition in vivo at 30 mg/kg (ulceration [2]) was 44%.

Molecule CCN(CC)CC[S+]([O-])c1nc2cccnc2s1 (stereo not shown) [Example 141] has an inhibition in vivo at 30 mg/kg (ulceration [2]) of 41%.

CCOCC[S+]([O-])c1nc2cnccc2s1 (stereo not shown) [Example 123, 2-[(2-ethoxymethyl)sulfinyl]thiazolo[4,5-c]pyridine] showed an inhibition in vivo at 30 mg/kg (ulceration [2]) of 15%.

With CC(C)N(CC[S+]([O-])c1nc2ncccc2s1)C(C)C (stereo not shown) [Example 136] the inhibition in vivo at 30 mg/kg (ulceration [2]) was 94%.

With CC1(C)CCCC(C)(C)N1CCSc1nc2ncccc2o1 [Example 47, 2-[(2-(2,2,6,6-tetramethylpiperidin-1-yl)ethyl)thio]oxazolo[4,5-b]pyridine] the inhibition in vivo at 30 mg/kg (ulceration [2]) was 99%.

For “2-[(2-ureidoethyl)sulfinyl]thiazolo[5,4-b]pyridine [Example 146]”, the “% Ulceration Inhibition” value (ulceration [2]; Table 1, 30 mg/kg, suspended in 0.5% CMC) was 19%.

Work on CCOCC[S+]([O-])c1nc2cccnc2s1 (stereo not shown) [Example 121] yielded an inhibition in vivo at 30 mg/kg (ulceration [2]) of 67%.

For C=CCOC(=O)C[S+]([O-])c1nc2cccnc2s1 (stereo not shown) [Example 89, 2-[(allyloxvcarbonylmethyl)sulfinyl]thiazolo[5,4-b]pyridine], the inhibition in vivo at 30 mg/kg (ulceration [2]) was 72%.

Molecule CN1CCN(CCC[S+]([O-])c2nc3cccnc3s2)CC1 (stereo not shown) [Example 151, 2-[(3-(1-methylpiperazin-4-yl)propyl)sulfinyl]thiazolo[5,4-b]pyridine] has an inhibition in vivo at 30 mg/kg (ulceration [2]) of 39%.

NC(=O)C[S+]([O-])c1nc2cccnc2s1 (stereo not shown) [Example 135, 2-[(carbamoylmethyl)sulfinyl]thiazolo[5,4-b]pyridine] gave an inhibition in vivo at 30 mg/kg (ulceration [2]) of 86%.

For CCCCOC(=O)C[S+]([O-])c1nc2cccnc2s1 (stereo not shown) [Example 79, 2-[(n-butoxycarbonylmethyl)sulfinyl]thiazolo[5,4-b]pyridine], the depression of erosion (ulceration [1]; control nearly 100% erosion) was 98%, the “% Ulceration Inhibition” value (ulceration [1]) was 98% and the inhibition in vivo at 30 mg/kg (ulceration [2]) was 76%. The LD50 (Toxicity (LD50)) was at least 1000 mg/kg.

With CCOC(=O)C[S+]([O-])c1nc2ncccc2s1 (stereo not shown) [Example 104, 2-[(ethoxycarbonylmethyl)sulfinyl]thiazolo[4,5-b]pyridine] the inhibition in vivo at 30 mg/kg (ulceration [2]) was 68% and the LD50 (Toxicity (LD50)) was at least 1000 mg/kg.

With C[S+]([O-])c1nc2cccnc2s1 (stereo not shown) [Example 103, 2-methylsulfinylthiazolo[5,4-b]pyridine] the inhibition in vivo at 30 mg/kg (ulceration [2]) was 84%.

In the case of CC(C)COC(=O)C[S+]([O-])c1nc2cccnc2s1 (stereo not shown) [Example 101, 2-[(isobutoxycarbonylmethyl)sulfinyl]thiazolo[5,4-b]pyridine], the inhibition in vivo at 30 mg/kg (ulceration [2]) is reported as 75%.

[O-][S+](CCN1CCOCC1)c1nc2ncccc2[nH]1 (stereo not shown) [Example 143, 2-[(2-morpholinoethyl)sulfinyl]imidazo[4,5-b]pyridine] showed an inhibition in vivo at 30 mg/kg (ulceration [2]) of 54%.

O=C(C[S+]([O-])c1nc2cccnc2s1)NC1CCCCC1 (stereo not shown) [Example 117, 2-[(N-cyclohexylcarbamoylmethyl)sulfinyl]thiazolo[5,4-b]pyridine] showed an inhibition in vivo at 30 mg/kg (ulceration [2]) of 77%.

For CN1CCCC1CC[S+]([O-])c1nc2cccnc2s1 (stereo not shown) [Example 144, 2-[(2-(1-methylpyrrolidin-2-y1)ethyl)sulfinyl]thiazolo[5,4-b]pyridine], the inhibition in vivo at 30 mg/kg (ulceration [2]) was 85%.

Work on CN1CCCC(C[S+]([O-])c2nc3cccnc3s2)C1 (stereo not shown) [Example 147, 2-[(1-methylpiperidin-3-yl)methylsulfinyl]thiazolo[5,4-b]pyridine] yielded an inhibition in vivo at 30 mg/kg (ulceration [2]) of 64%.
